Data published in patent publication US20240033234A1, “THERAPEUTIC COMPOUNDS, FORMULATIONS, AND USE THEREOF” (Tvardi Therapeutics, Inc., priority 2022, published 2024).
Several values for one entry are separate records, joined by “and”; a condition that tells them apart may be missing. Equal values may be shown once.

Test: Accelerated and long term stability study of TTI-101 (Batch A, Batch B): HPLC assay, purity, impurities and water content after storage at 5° C., 25° C./60% RH, 30° C./65% RH or 40° C./75% RH
Format: physicochemical
Settings: for Impurities RRT 0.99: RRT of compound of formula (IV); for Impurities RRT 1.06: RRT of Compound 4
Method: Exemplary HPLC conditions: diluent was 0.1% trifluoroacetic acid (TFA) in acetonitrile, Mobile Phase A was 0.05% TFA in water, and Mobile Phase B was 0.05% TFA in acetonitrile, column (Agilent, Eclipse XDB-C18, 3.0×100 mm, particle size 1.8 μm), flow (0.425 mL/min), and detector (280 nm diode array).
Batch A was prepared analogously using Method 3 as described in Example 1. Batch B was prepared according to Method 5 as described in Example 1.
Samples of TTI-101 were stored at 5° C., 25° C./60% RH, 30° C./65% RH, or 40° C./75% RH. TTI-101 was stored in an LDPE bag enclosed with a Nylon cable tie and then transferred to another LDPE bag and enclosed with a Nylon cable tie. The enclosure was put into an HDPE bottle and closed with a polyethylene-lined polypropylene cap. The samples were stored under the above-identified conditions.
The samples were analyzed using HPLC with the exemplary conditions identified above. Relative retention time (RRT) for Compound 5 was about 0.83, Compound 4 was about 1.05-1.06, Compound 6 was about 1.15-1.17, and compound of formula (IV) was about 0.99.
• NA not applicable • NQ ≥0.02% and <0.05% • Avg average • Cmpd compound • — no peak • M month • RRT relative retention time

[1] = 5° C., 0 M, P1/P2, listed as Batch A
[2] = 5° C., 2 M, P1/P2, listed as Batch A
[3] = 5° C., 3 M, P1/P2, listed as Batch A
[4] = 5° C., 12 M, P1/P2, listed as Batch A
[5] = 25° C./60% RH, 0 M, P1/P2, listed as Batch A
[6] = 25° C./60% RH, 2 M, P1/P2, listed as Batch A

COc1ccc(S(=O)(=O)Nc2cc(-c3c(O)ccc4ccccc34)c(O)c3ccccc23)cc1 [TTI-101]
Assay (%) (5° C., 0 M, Avg): 99.8%
Impurities RRT 1.06 (Cmpd 4) (5° C., 0 M, Avg): NQ (≥0.02% and <0.05%)
Impurities RRT 1.17 (Cmpd 6) (5° C., 0 M, Avg): 0.13 area %
Impurities RRT 1.32 (5° C., 0 M, Avg): NQ (≥0.02% and <0.05%)
Impurities Total (5° C., 0 M, Avg): 0.1 area %
Purity (%) (5° C., 0 M, Avg): 99.8%
Water Content (%) (5° C., 0 M, Avg): <0.04%
Impurities RRT 0.99 (5° C., 0 M, Avg): NQ (≥0.02% and <0.05%)
Impurities RRT 1.32 (5° C., 0 M, P1/P2): NQ (≥0.02% and <0.05%)
Impurities Total (5° C., 0 M, P1/P2): 0.1 area %
Purity (%) (5° C., 0 M, P1/P2): 99.8%
Water Content (%) (5° C., 0 M, P1/P2): <0.04%
Assay (%) [1]: 99.9% and 99.7%
Impurities RRT 1.17 (Cmpd 6) [1]: 0.13 area % and 0.12 area %
Assay (%) (5° C., 2 M, Avg): 100.2%
Impurities RRT 1.16 (Cmpd 6) (5° C., 2 M, Avg): 0.08 area %
Impurities Total (5° C., 2 M, Avg): 0.1 area %
Purity (%) (5° C., 2 M, Avg): 99.9%
Water Content (%) (5° C., 2 M, Avg): <0.04%
Impurities RRT 0.99 (5° C., 2 M, Avg): NQ (≥0.02% and <0.05%)
Water Content (%) (5° C., 2 M, P1/P2): <0.04%
Assay (%) [2]: 99.7% and 100.7%
Purity (%) [2]: 99.9% and 100.0%
Assay (%) (5° C., 3 M, Avg): 99.9%
Impurities RRT 1.06 (Cmpd 4) (5° C., 3 M, Avg): 0.07 area %
Impurities RRT 1.16 (Cmpd 6) (5° C., 3 M, Avg): 0.22 area %
Impurities Total (5° C., 3 M, Avg): 0.3 area %
Purity (%) (5° C., 3 M, Avg): 99.7%
Water Content (%) (5° C., 3 M, Avg): <0.04%
Impurities RRT 1.16 (Cmpd 6) (5° C., 3 M, P1/P2): 0.22 area %
Impurities Total (5° C., 3 M, P1/P2): 0.3 area %
Purity (%) (5° C., 3 M, P1/P2): 99.7%
Water Content (%) (5° C., 3 M, P1/P2): <0.04%
Assay (%) [3]: 100.2% and 99.5%
Impurities RRT 1.06 (Cmpd 4) [3]: 0.06 area % and 0.07 area %
Assay (%) (5° C., 6 M, Avg): 99.4%
Impurities RRT 1.15 (Cmpd 6) (5° C., 6 M, Avg): 0.13 area %
Impurities Total (5° C., 6 M, Avg): 0.1 area %
Purity (%) (5° C., 6 M, Avg): 99.9%
Water Content (%) (5° C., 6 M, Avg): <0.04%
Impurities RRT 1.15 (Cmpd 6) (5° C., 6 M, P1/P2): 0.13 area %
Impurities Total (5° C., 6 M, P1/P2): 0.1 area %
Purity (%) (5° C., 6 M, P1/P2): 99.9%
Water Content (%) (5° C., 6 M, P1/P2): <0.04%
Assay (%) (5° C., 6 M, P1/P2, listed as Batch A): 100.6% and 98.3%
Assay (%) (5° C., 9 M, Avg): 99.6%
Impurities RRT 1.16 (Cmpd 6) (5° C., 9 M, Avg): 0.12 area %
Impurities Total (5° C., 9 M, Avg): 0.1 area %
Purity (%) (5° C., 9 M, Avg): 99.9%
Water Content (%) (5° C., 9 M, Avg): <0.04%
Assay (%) (5° C., 9 M, P1/P2): 99.6%
Impurities Total (5° C., 9 M, P1/P2): 0.1 area %
Purity (%) (5° C., 9 M, P1/P2): 99.9%
Water Content (%) (5° C., 9 M, P1/P2): <0.04%
Impurities RRT 1.16 (Cmpd 6) (5° C., 9 M, P1/P2, listed as Batch A): 0.12 area % and 0.11 area %
Assay (%) (5° C., 12 M, Avg): 99.2%
Impurities RRT 1.06 (Cmpd 4) (5° C., 12 M, Avg): NQ (≥0.02% and <0.05%)
Impurities RRT 1.16 (Cmpd 6) (5° C., 12 M, Avg): 0.39 area %
Impurities Total (5° C., 12 M, Avg): 0.4 area %
Purity (%) (5° C., 12 M, Avg): 99.6%
Water Content (%) (5° C., 12 M, Avg): 0.04%
Impurities RRT 1.06 (Cmpd 4) (5° C., 12 M, P1/P2): NQ (≥0.02% and <0.05%)
Impurities RRT 1.16 (Cmpd 6) (5° C., 12 M, P1/P2): 0.39 area %
Impurities Total (5° C., 12 M, P1/P2): 0.4 area %
Purity (%) (5° C., 12 M, P1/P2): 99.6%
Assay (%) [4]: 99.1% and 99.2%
Water Content (%) [4]: <0.04% and 0.04%
Assay (%) (5° C., 18 M, Avg): 98.5%
Impurities RRT 1.15 (Cmpd 6) (5° C., 18 M, Avg): 0.10 area %
Impurities Total (5° C., 18 M, Avg): 0.1 area %
Purity (%) (5° C., 18 M, Avg): 99.9%
Water Content (%) (5° C., 18 M, Avg): <0.04%
Impurities RRT 1.15 (Cmpd 6) (5° C., 18 M, P1/P2): 0.10 area %
Impurities Total (5° C., 18 M, P1/P2): 0.1 area %
Purity (%) (5° C., 18 M, P1/P2): 99.9%
Water Content (%) (5° C., 18 M, P1/P2): <0.04%
Impurities RRT 1.06 (5° C., 18 M, P1/P2): NQ (≥0.02% and <0.05%)
Assay (%) (5° C., 18 M, P1/P2, listed as Batch A): 97.9% and 99.2%
Assay (%) (5° C., 24 M, Avg): 99.7%
Impurities RRT 1.16 (Cmpd 6) (5° C., 24 M, Avg): 0.11 area %
Impurities Total (5° C., 24 M, Avg): 0.1 area %
Purity (%) (5° C., 24 M, Avg): 99.9%
Water Content (%) (5° C., 24 M, Avg): <0.04%
Impurities RRT 1.16 (Cmpd 6) (5° C., 24 M, P1/P2): 0.11 area %
Impurities Total (5° C., 24 M, P1/P2): 0.1 area %
Purity (%) (5° C., 24 M, P1/P2): 99.9%
Water Content (%) (5° C., 24 M, P1/P2): <0.04%
Impurities RRT 1.06 (5° C., 24 M, P1/P2): NQ (≥0.02% and <0.05%)
Assay (%) (5° C., 24 M, P1/P2, listed as Batch A): 100.2% and 99.3%
Assay (%) (25° C./60% RH, 0 M, Avg): 99.8%
Impurities RRT 1.06 (Cmpd 4) (25° C./60% RH, 0 M, Avg): NQ (≥0.02% and <0.05%)
Impurities RRT 1.17 (Cmpd 6) (25° C./60% RH, 0 M, Avg): 0.13 area %
Impurities RRT 1.32 (25° C./60% RH, 0 M, Avg): NQ (≥0.02% and <0.05%)
Impurities Total (25° C./60% RH, 0 M, Avg): 0.1 area %
Purity (%) (25° C./60% RH, 0 M, Avg): 99.8%
Water Content (%) (25° C./60% RH, 0 M, Avg): <0.04%
Impurities RRT 0.99 (25° C./60% RH, 0 M, Avg): NQ (≥0.02% and <0.05%)
Impurities RRT 1.32 (25° C./60% RH, 0 M, P1/P2): NQ (≥0.02% and <0.05%)
Impurities Total (25° C./60% RH, 0 M, P1/P2): 0.1 area %
Purity (%) (25° C./60% RH, 0 M, P1/P2): 99.8%
Water Content (%) (25° C./60% RH, 0 M, P1/P2): <0.04%
Assay (%) [5]: 99.9% and 99.7%
Impurities RRT 1.17 (Cmpd 6) [5]: 0.13 area % and 0.12 area %
Assay (%) (25° C./60% RH, 2 M, Avg): 99.1%
Impurities RRT 0.71 (25° C./60% RH, 2 M, Avg): 0.08 area %
Impurities RRT 0.92 (25° C./60% RH, 2 M, Avg): NQ (≥0.02% and <0.05%)
Impurities RRT 1.16 (Cmpd 6) (25° C./60% RH, 2 M, Avg): 0.05 area %
Impurities RRT 1.29 (25° C./60% RH, 2 M, Avg): NQ (≥0.02% and <0.05%)
Impurities Total (25° C./60% RH, 2 M, Avg): 0.1 area %
Purity (%) (25° C./60% RH, 2 M, Avg): 99.9%
Water Content (%) (25° C./60% RH, 2 M, Avg): <0.04%
Water Content (%) (25° C./60% RH, 2 M, P1/P2): <0.04%
Assay (%) [6]: 98.9% and 99.3%
Impurities Total [6]: 0.05 area % and 0.1 area %
Purity (%) [6]: 99.9% and 99.8%
Assay (%) (25° C./60% RH, 3 M, Avg): 99.5%
Impurities RRT 1.06 (Cmpd 4) (25° C./60% RH, 3 M, Avg): 0.07 area %
Impurities RRT 1.16 (Cmpd 6) (25° C./60% RH, 3 M, Avg): 0.22 area %
Impurities Total (25° C./60% RH, 3 M, Avg): 0.3 area %
Purity (%) (25° C./60% RH, 3 M, Avg): 99.7%
Water Content (%) (25° C./60% RH, 3 M, Avg): <0.04%
Impurities RRT 1.06 (Cmpd 4) (25° C./60% RH, 3 M, P1/P2): 0.07 area %
Impurities RRT 1.16 (Cmpd 6) (25° C./60% RH, 3 M, P1/P2): 0.22 area %
Impurities Total (25° C./60% RH, 3 M, P1/P2): 0.3 area %
